Assay results taken from the supplement of paper PMC11061612.

How the values were obtained:
Test in all cases: Bliss excess, mean over the matrix (fraction); higher = more synergy
[1] = system: SW1463 (Colorectal Carcinoma)
Summary of the method: (§1)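 Cell lines in DMEM/F12 or RPMI with 10% FBS were plated in 1536-well plates, held 24 hours at 37°C, 5% CO2, then given two-drug dose matrices for 72 hours (DMSO typically 0.2%). Viability was read by CellTiter-Glo 2.0 luminescence and scaled as inhibition from 0 (vehicle wells) to 1 (blank wells). Combination Emax is the second-highest inhibition in the matrix; Bliss excess is observed combination effect minus expected EA + EB − EA·EB, EA and EB being single-agent effects.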

[2] = system: KNS-62 (Squamous Cell Lung Carcinoma)
Summary of the method: as §1

[3] = system: BC-1 (B-Cell Non-Hodgkin's Lymphoma)
Summary of the method: as §1

[4] = system: GCIY (Gastric Carcinoma)
Summary of the method: as §1

[5] = system: MG-63 (Osteosarcoma)
Summary of the method: as §1

[6] = system: NTERA-2-cl-D1 (Other Solid Carcinomas)
Summary of the method: as §1

[7] = system: MDA-MB-175-VII (Breast Carcinoma)
Summary of the method: as §1

[8] = system: SBC-5 (Small Cell Lung Carcinoma)
Summary of the method: as §1

[9] = system: NCI-H2170 (Squamous Cell Lung Carcinoma)
Summary of the method: as §1

[10] = system: OCI-M1 (Acute Myeloid Leukemia)
Summary of the method: as §1

[11] = system: HT-3 (Cervical Carcinoma)
Summary of the method: as §1

[12] = system: DK-MG (Glioblastoma)
Summary of the method: as §1

[13] = system: BT-474 (Breast Carcinoma)
Summary of the method: as §1

[14] = system: IGROV-1 (Ovarian Carcinoma)
Summary of the method: as §1

[15] = system: SCC90 (Head and Neck Carcinoma)
Summary of the method: as §1

[16] = system: TK (B-Cell Non-Hodgkin's Lymphoma)
Summary of the method: as §1

[17] = system: SUP-HD1 (Hodgkin's Lymphoma)
Summary of the method: as §1

[18] = system: HT-1197 (Bladder Carcinoma)
Summary of the method: as §1

[19] = system: NCI-H1975 (Lung Adenocarcinoma)
Summary of the method: as §1

[20] = system: ATN-1 (T-Lymphoblastic Leukemia)
Summary of the method: as §1

| Compound | Bliss excess [1] | Bliss excess [2] | Bliss excess [3] | Bliss excess [4] | Bliss excess [5] | Bliss excess [6] | Bliss excess [7] | Bliss excess [8] | Bliss excess [9] | Bliss excess [10] | Bliss excess [11] | Bliss excess [12] | Bliss excess [13] | Bliss excess [14] | Bliss excess [15] | Bliss excess [16] | Bliss excess [17] | Bliss excess [18] | Bliss excess [19] | Bliss excess [20] |
| --- | --- | --- | --- | --- | --- | --- | --- | --- | --- | --- | --- | --- | --- | --- | --- | --- | --- | --- | --- | --- |
| C=CCn1c(=O)c2cnc(Nc3ccc(N4CCN(C)CC4)cc3)nc2n1-c1cccc(C(C)(C)O)n1 [AZD1775] + Nc1ccn([C@@H]2O[C@H](CO)[C@@H](O)C2(F)F)c(=O)n1 [Gemcitabine] (first compound max 1 µM, partner max 0.3 µM) | -0.0109 | 0.0179 | 0.0191 | 0.0465 | 0.0581 | -0.062 | -0.0105 |  |  |  |  |  |  |  |  |  |  |  |  |  |
| CN(CCO)CC[C@H](CSc1ccccc1)Nc1ccc(S(=O)(=O)NC(=O)c2ccc(N3CCC([C@@H](O)c4ccccc4-c4ccc(Cl)cc4)CC3)cc2)cc1S(=O)(=O)C(F)(F)F [AZD4320] + CS(=O)(=O)CCNCc1ccc(-c2ccc3ncnc(Nc4ccc(OCc5cccc(F)c5)c(Cl)c4)c3c2)o1 [Lapatinib] (first compound max 1 µM, 7x7, partner max 10 µM) | 0.105 | -0.0185 | 0.0372 | 0.0352 | -0.0176 | -0.026 | 0.0728 |  |  |  |  |  |  |  |  |  |  |  |  |  |
| COc1nnc2ccc(N3CCC(c4ccc(OCCN5CCN(C)C(=O)[C@H]5C)cc4)CC3)nn12 [AZD5153] + CN(CC[C@H](CSC1=CC=CC=C1)NC2=C(C=C(C=C2)S(=O)(=O)NC(=O)C3=CC=C(C=C3)N4CCC(CC4)[C@H](C5=CC=CC=C5C6=CC=C(C=C6)Cl)O)S(=O)(=O)C(F)(F)F)CCO [AZD4320] (first compound max 1 µM, 7x7, partner max 1 µM) |  |  |  |  |  |  |  | -0.0012 | 0.0175 | -0.0095 | 0.0347 | 0.0382 | 0.0941 | 0.0077 | 0.021 | -0.0154 | -0.0094 | 0.073 | -0.012 | -0.0165 |
| Cc1c2c(nn1C)CSCc1cc(n(C)n1)CSc1cc(c3ccccc3c1)OCCCc1c(C(=O)O)n(C)c3c-2c(Cl)ccc13 [AZD5991] + CC(=O)O[C@H]1C(=O)[C@@]2(C)[C@H]([C@H](OC(=O)c3ccccc3)[C@]3(O)C[C@H](OC(=O)[C@H](O)[C@@H](NC(=O)c4ccccc4)c4ccccc4)C(C)=C1C3(C)C)[C@]1(OC(C)=O)CO[C@@H]1C[C@@H]2O [Paclitaxel] (first compound max 1 µM, 7x7, partner max 3 µM) | 0.0763 | -0.0159 | -0.0329 | -0.0262 | -0.0715 | 0.111 | 0.102 |  |  |  |  |  |  |  |  |  |  |  |  |  |
| Cc1c2c(nn1C)CSCc1cc(n(C)n1)CSc1cc(c3ccccc3c1)OCCCc1c(C(=O)O)n(C)c3c-2c(Cl)ccc13 [AZD5991] + CS(=O)(=O)CCNCc1ccc(-c2ccc3ncnc(Nc4ccc(OCc5cccc(F)c5)c(Cl)c4)c3c2)o1 [Lapatinib] (first compound max 1 µM, 7x7, partner max 10 µM) | 0.0331 | -0.0155 | 0.0211 | 0.013 | -0.0352 | -0.0334 | 0.04 |  |  |  |  |  |  |  |  |  |  |  |  |  |
| Cc1c2c(nn1C)CSCc1cc(n(C)n1)CSc1cc(c3ccccc3c1)OCCCc1c(C(=O)O)n(C)c3c-2c(Cl)ccc13 [AZD5991] + Nc1ccn([C@@H]2O[C@H](CO)[C@@H](O)C2(F)F)c(=O)n1 [Gemcitabine] (first compound max 1 µM, 7x7, partner max 0.3 µM) | -0.0715 | -0.009 | 0.033 | 0.0091 | -0.071 | -0.0695 | 0.0148 |  |  |  |  |  |  |  |  |  |  |  |  |  |
| C[C@@H]1COCCN1c1cc(C2([S@](C)(=N)=O)CC2)nc(-c2ccnc3[nH]ccc23)n1 [AZD6738] + C1CC(C1)(C(=O)[O-])C(=O)[O-].N.N.[Pt+2] [Carboplatin] (first compound max 10 µM, 7x7, partner max 10 µM) | -0.0446 | -0.0581 | -0.0173 | -0.066 | -0.0391 | -0.0651 | -0.0024 |  |  |  |  |  |  |  |  |  |  |  |  |  |
| C[C@@H]1COCCN1c1cc(C2([S@](C)(=N)=O)CC2)nc(-c2ccnc3[nH]ccc23)n1 [AZD6738] + Nc1ccn([C@@H]2O[C@H](CO)[C@@H](O)C2(F)F)c(=O)n1 [Gemcitabine] (first compound max 10 µM, 7x7, partner max 0.3 µM) | -0.0128 | 0.0023 | 0.0099 | -0.0362 | 0.17 | -0.0019 | -0.0368 |  |  |  |  |  |  |  |  |  |  |  |  |  |
| C[C@@H](Nc1cc(F)cc(F)c1)c1cc(C(=O)N(C)C)cc2c(=O)cc(N3CCOCC3)oc12 [AZD8186] + C1CN(CCC1(C(=O)N[C@@H](CCO)C2=CC=C(C=C2)Cl)N)C3=NC=NC4=C3C=CN4 [AZD5363] (first compound max 10 µM, 7x7, partner max 10 µM) | -0.016 | -0.0302 | 0.0374 | -0.012 | -0.0376 | -0.0573 | -0.0108 |  |  |  |  |  |  |  |  |  |  |  |  |  |
| C[C@@H](Oc1cc(-c2cnn(C3CCNCC3)c2)cnc1N)c1c(Cl)ccc(F)c1Cl [Crizotinib] + CC1=C(C(=CC=C1)Cl)NC(=O)C2=CN=C(S2)NC3=CC(=NC(=N3)C)N4CCN(CC4)CCO [Dasatinib] (first compound max 10 µM, 7x7, partner max 2 µM) | -0.0926 | -0.0258 | 0.0312 | 0.0537 | 0.0498 | 0.0073 | -0.0527 |  |  |  |  |  |  |  |  |  |  |  |  |  |
| C[C@@H](Oc1cc(-c2cnn(C3CCNCC3)c2)cnc1N)c1c(Cl)ccc(F)c1Cl [Crizotinib] + Cn1cnc2c(F)c(Nc3ccc(Br)cc3Cl)c(C(=O)NOCCO)cc21 [Selumetinib] (first compound max 10 µM, 7x7, partner max 10 µM) | -0.0443 | -0.042 | -0.045 | -0.0266 | -0.0017 | -0.027 | 0.0011 |  |  |  |  |  |  |  |  |  |  |  |  |  |
| CS(=O)(=O)CCNCc1ccc(-c2ccc3ncnc(Nc4ccc(OCc5cccc(F)c5)c(Cl)c4)c3c2)o1 [Lapatinib] + Cn1cnc2c(F)c(Nc3ccc(Br)cc3Cl)c(C(=O)NOCCO)cc21 [Selumetinib] (first compound max 10 µM, 7x7, partner max 10 µM) | 0.0681 | 0.0708 | 0.0547 | -0.0067 | -0.0863 | -0.0125 | 0.0577 |  |  |  |  |  |  |  |  |  |  |  |  |  |
| CS(=O)(=O)CCNCc1ccc(-c2ccc3ncnc(Nc4ccc(OCc5cccc(F)c5)c(Cl)c4)c3c2)o1 [Lapatinib] + NC1(c2ccc(-c3nc4ccn5c(=O)[nH]nc5c4cc3-c3ccccc3)cc2)CCC1 [MK-2206] (first compound max 10 µM, 7x7, partner max 10 µM) | 0.0833 | 0.0408 | 0.0584 | 0.0484 | 0.0157 | 0.0305 | 0.0563 | -0.0051 |  | 0.0217 |  |  |  |  | 0.0358 |  |  |  |  |  |
| O=C(c1cc(Cc2n[nH]c(=O)c3ccccc23)ccc1F)N1CCN(C(=O)C2CC2)CC1 [Olaparib] + CN(CC[C@H](CSC1=CC=CC=C1)NC2=C(C=C(C=C2)S(=O)(=O)NC(=O)C3=CC=C(C=C3)N4CCC(CC4)[C@H](C5=CC=CC=C5C6=CC=C(C=C6)Cl)O)S(=O)(=O)C(F)(F)F)CCO [AZD4320] (first compound max 10 µM, 7x7, partner max 1 µM) | 0.0073 | -0.0436 | 0.061 | 0.0025 | -0.0185 | 0.0258 | -0.0001 |  |  |  |  |  |  |  |  |  |  |  |  |  |
| O=C(c1cc(Cc2n[nH]c(=O)c3ccccc23)ccc1F)N1CCN(C(=O)C2CC2)CC1 [Olaparib] + COc1nnc2ccc(N3CCC(c4ccc(OCCN5CCN(C)C(=O)[C@H]5C)cc4)CC3)nn12 [AZD5153] (first compound max 10 µM, 7x7, partner max 1 µM) | -0.0601 | -0.0631 | -0.0048 | -0.0248 | -0.0749 | -0.127 | -0.0024 |  |  |  |  |  |  |  |  |  |  |  |  |  |
| O=C(c1cc(Cc2n[nH]c(=O)c3ccccc23)ccc1F)N1CCN(C(=O)C2CC2)CC1 [Olaparib] + Cc1c2c(nn1C)CSCc1cc(n(C)n1)CSc1cc(c3ccccc3c1)OCCCc1c(C(=O)O)n(C)c3c-2c(Cl)ccc13 [AZD5991] (first compound max 10 µM, 7x7, partner max 1 µM) | -0.0325 | -0.0396 | 0.0737 | -0.041 | -0.0465 | 0.0289 | -0.0155 |  |  |  |  |  |  |  |  |  |  |  |  |  |
| CCc1c2c(nc3ccc(O)cc13)-c1cc3c(c(=O)n1C2)COC(=O)[C@]3(O)CC [SN-38] + O=C(c1cc(Cc2n[nH]c(=O)c3ccccc23)ccc1F)N1CCN(C(=O)C2CC2)CC1 [Olaparib] (first compound max 0.3 µM, 7x7, partner max 10 µM) | 0.0557 | 0.0497 | 0.0369 | 0.0875 | 0.0681 | 0.0387 | 0.0367 |  | 0.0726 |  | 0.0669 | 0.0193 |  |  | 0.0728 |  | -0.0168 | 0.0465 | 0.0248 | 0.0907 |
| Cc1nc(-c2cn3c(n2)-c2ccc(-c4cnn(C(C)(C)C(N)=O)c4)cc2OCC3)n(C(C)C)n1 [Taselisib] + O=C(Nc1ccc2[nH]nc(-c3ccncc3)c2c1)[C@@H]1CCN(CC(=O)N2CCN(c3ccc(-c4ncccn4)cc3)CC2)C1 [SCH772984] (first compound max 10 µM, 7x7, partner max 5 µM) | 0.0102 | 0.0108 | 0.139 | -0.0131 | -0.0764 | -0.0322 | 0.138 |  |  |  |  |  |  |  |  |  |  |  |  |  |
| CC1(C)CCC(CN2CCN(c3ccc(C(=O)NS(=O)(=O)c4ccc(NCC5CCOCC5)c([N+](=O)[O-])c4)c(Oc4cnc5[nH]ccc5c4)c3)CC2)=C(c2ccc(Cl)cc2)C1 [Venetoclax] + CS(=O)(=O)CCNCc1ccc(-c2ccc3ncnc(Nc4ccc(OCc5cccc(F)c5)c(Cl)c4)c3c2)o1 [Lapatinib] (first compound max 1 µM, 7x7, partner max 10 µM) | 0.0659 | -0.0116 | 0.022 | -0.0655 | 0.0029 | -0.0618 | 0.0085 |  |  |  |  |  |  |  |  |  |  |  |  |  |
